In series [1] the target is T1, Procathepsin L (Homo sapiens, UniProt P07711). Nature of the series: Inhibition of CTSL (unknown origin).
The target in series [2] is T1, Procathepsin L. Nature of the series: Inhibition of CTSL (unknown origin) using Z-Phe-Arg-AMC as substrate by fluorometric assay.
A short description of series [3]: Lipophilicity, logP of compound. The note with it: octanol/water.
The target in series [4] is T1, Procathepsin L. Kind of series: Inhibition of CTSL (unknown origin) using Z-Phe-Arg-AMC as substrate preincubated for 30 mins followed by substrate addition measured after 6 mins by fluorescence based assay.

Ki, IC50 and logP data for nine molecules are collected here from ChEMBL document CHEMBL6071139, “Recent discovery of natural substances with cathepsin L-inhibitory activity for cancer metastasis suppression” (Eur J Med Chem, 2024).

T1 sequence (P07711 whole entry): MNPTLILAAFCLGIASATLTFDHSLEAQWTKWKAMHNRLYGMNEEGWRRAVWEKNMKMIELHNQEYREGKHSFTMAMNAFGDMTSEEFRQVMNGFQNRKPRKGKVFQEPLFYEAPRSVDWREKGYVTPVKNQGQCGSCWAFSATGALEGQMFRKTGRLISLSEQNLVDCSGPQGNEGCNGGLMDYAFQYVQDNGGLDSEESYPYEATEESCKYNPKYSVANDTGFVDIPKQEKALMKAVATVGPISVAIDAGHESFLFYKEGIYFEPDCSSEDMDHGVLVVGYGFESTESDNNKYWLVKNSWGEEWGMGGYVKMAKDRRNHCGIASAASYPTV

In general, Ki refers to a measure of affinity in units of concentration, obtained from inhibition or displacement. A low value points to higher affinity. As for `Cc1ccc(S(=O)(=O)/C=C/C(=O)[C@H](CC(C)C)NC(=O)[C@H](CC(C)C)NC(=O)OCc2ccccc2)cc1`, the affinity in series [1], expressed as Ki, was 0.0085 µM. As a reminder, the IC50 is the midpoint of a concentration-inhibition curve. In turn, `O=C(N[C@H](COC(=O)[C@H](Cc1ccccc1)NC(=O)c1ccccc1)Cc1ccccc1)c1ccccc1` [ASPERPHENAMATE] showed an IC50 in series [1] of 91.2 µM. Turning to `O=C(N[C@H](COC(=O)[C@H](Cc1ccccc1)NS(=O)(=O)c1cccc(Br)c1)Cc1ccccc1)c1ccccc1`, half-maximal inhibition in series [1] (IC50) required 5.8 µM. In the case of `O=C(O)/C=C/c1ccc(O)cc1O`, the IC50 in series [2] is 930 µM.

Broadly, the logP is the decadic logarithm of the partition coefficient of the neutral form, usually between octanol and water. A low value points to lower lipophilicity. Take `C[C@@H](/C=C/[N+](=O)[O-])NC(=O)[C@H](Cc1ccc([N+](=O)[O-])cc1)NC(=O)OCc1ccccc1`: the log partition coefficient (logP) in series [3] is 1.85. The same molecule gave a Ki in series [1] of 0.0039 µM. Consider `O=C(N[C@@H](Cc1ccccc1)C(=O)OC[C@H](Cc1ccccc1)NS(=O)(=O)c1ccc(Br)cc1)c1ccccc1`, for which, in series [1], it took 6 µM to reach half-maximal inhibition (IC50).

Consider `CCOC(=O)/C=C/C(=O)[C@H](CC(C)C)NC(=O)[C@H](Cc1ccccc1)NC(=O)OCc1ccccc1`, for which, in series [1], the affinity corresponds to a Ki of 0.012 µM. Consider `Cc1ccc(S(=O)(=O)N[C@@H](Cc2ccccc2)C(=O)OC[C@H](Cc2ccccc2)NC(=O)c2ccccc2)cc1`, for which the concentration for half-maximal inhibition (IC50) in series [4] is 30.2 µM. Turning to `C[C@@H](/C=C/[N+](=O)[O-])NC(=O)[C@H](Cc1c[nH]c2ccccc12)NC(=O)OCc1ccccc1`, the logP in series [3] amounted to 1.61. This molecule returned a Ki in series [1] of 0.0011 µM.
